The values below come from paper PMC12498136, “Synthesis and biological evaluation of novel carnosic acid derivatives with anticancer activity” (RSC Advances, 2025).

In general, IC50 refers to the concentration at which inhibition is half-maximal.

Assay [1] concerns HCT116 cells. The assay can be described thus: MTT cell viability assay in HCT116 cells. It is filed as cell-based. To be noted: for IC50: Homo sapiens, read-out: IC50 HCT116. How it is done:
The MTT assay was used to assess the effect of the compounds on cell viability. […] Subsequently, the culture medium was switched with a new medium containing DMSO (control) or the compound at a specified concentration. […] The plates were then incubated for 1 h at 37 °C. After this time, the supernatant was aspirated, and the formazan crystals were dissolved in 100 μL of DMSO in each well. Relative cell viability was calculated by measuring absorbance at 570 nm using a Benchmark Plus Microplate Reader (Bio-Rad Laboratories, Hercules, CA, USA).

The subject of assay [2] is SW620 cells. The assay can be described thus: MTT cell viability assay in SW620 cells. It is filed as cell-based. To be noted: Homo sapiens, SW-620; MTT assay, 72 h incubation, mean ± SD; read-out: IC50 SW620. How it is done:
(§1) The MTT assay was used to assess the effect of the compounds on cell viability. For this purpose, A375 (1500 cells per well), BJ (10 000 cells per well), Caco-2 (4000 cells per well), HCT116 (3000 cells per well), Mia Paca-2 (2000 cells per well), SW480 (6000 cells per well), and SW620 (8000 cells per well) cells were seeded in 96-well plates and incubated for 24 h. Subsequently, the culture medium was switched with a new medium containing DMSO (control) or the compound at a specified concentration. Following a 72 h incubation period, the supernatant was aspirated, and 100 μL of a mixture (1 : 1) of filtered MTT solution (1 mg per mL PBS) and FBS-free medium was added. The plates were then incubated for 1 h at 37 °C. After this time, the supernatant was aspirated, and the formazan crystals were dissolved in 100 μL of DMSO in each well. Relative cell viability was calculated by measuring absorbance at 570 nm using a Benchmark Plus Microplate Reader (Bio-Rad Laboratories, Hercules, CA, USA). Results are presented as the mean ± standard deviation (SD) of IC50 values, determined by nonlinear regression analysis of dose–response curves (log(inhibitor) vs. response with variable slope (four parameters)) using GraphPad Prism 9 software (GraphPad Software, San Diego, CA, USA).
In general terms: Formazan colour is commonly taken as a measure of viable cells.

Assay [3] concerns Caco-2 cells. In words: MTT cell viability assay in Caco-2 cells. To be noted: Homo sapiens, Caco-2; MTT assay, 72 h incubation, mean ± SD; read-out: IC50 Caco-2. It is filed as cell-based. How it is done: as §1
Assay [4] relates to Mia Paca-2 cells. The assay can be described thus: MTT cell viability assay in Mia Paca-2 cells. It is filed as cell-based. The note with it: Homo sapiens, MIA PaCa-2; MTT assay, 72 h incubation, mean ± SD; read-out: IC50 Mia Paca-2. The procedure:
as §1

The subject of assay [5] is HCT116 cells. To be noted: MTT assay, 72 h; previously determined by the research team, ref [26]; cited from earlier work.
Assay [6] relates to SW620 cells. Also noted: method as in PMID 31909511. To be noted: MTT assay, previously determined by the research team, ref [35]; cited from earlier work.
Assay [7] deals with Mia Paca-2 cells. Also noted: method as in PMID 18007390. The note with it: MTT assay, from the literature, ref [37]; cited from earlier work.
In assay [8] the test system is A375 cells. On the set-up: method as in PMID 23229057. To be noted: MTT assay, from the literature, ref [38]; cited from earlier work.
For assay [9], the system named is BJ cells. On the set-up: method as in doi:10.1039/C5RA19120C. The note with it: MTT assay, previously determined by the research team, ref [39]; read-out: IC50 BJ (non-tumoral); cited from earlier work.
Assay [10] has as its system SW480 cells. The assay can be described thus: MTT cell viability assay in SW480 cells. It is filed as cell-based. How it is done:
as §1

For assay [11], the system named is A375 cells. In words: MTT cell viability assay in A375 cells. It is filed as cell-based. The note with it: Homo sapiens, A-375; MTT assay, 72 h incubation, mean ± SD; read-out: IC50 A375. The procedure:
as §1

[12] abbreviates: HCT-116, MTT assay, 72 h incubation, mean ± SD.
[13] abbreviates: SW480 cells, ratio of IC50 values.

Read-outs that look alike come from different tables or passages of the source. Bounds are passed on as bounds.

`CC(C)c1cc2c(c(O)c1O)[C@@]1(C(=O)O)CCCC(C)(C)[C@@H]1CC2` [CA 1, Carnosic acid]: the IC50 in assay [1] (setting [12]) was found to be 42 ± 4 µM; in assay [2], 18 ± 2 µM; in assay [3], 34 ± 2 µM; in assay [4] it was 21 ± 1 µM.

Regarding `N.N.[Cl][Pt][Cl]` [Cisplatin], the IC50 is 21 ± 1 µM in assay [5]; 1.4 ± 0.5 µM in assay [6]; 5 ± 1 µM in [7]; 3 ± 1 µM in [8]; 10 ± 2 µM in assay [9]. For the molecule `CC(=O)Oc1c(C(C)C)cc2c(c1OC(C)=O)[C@@]1(C(=O)O)CCCC(C)(C)[C@@H]1CC2` [Compound 2, (4aR,10aS)-5,6-Bis(acetyloxy)-1,1-dimethyl-7-(propan-2-yl)1,3,4,9,10,10a-hexahydrophenanthrene-4a(2H)-carboxylic acid], in assay [1] (setting [12]), the IC50 was 44 ± 4 µM.

Consider `CCOC(=O)[C@]12CCCC(C)(C)[C@@H]1CCc1cc(C(C)C)c(OC(C)=O)c(OC(C)=O)c12` [Compound 4, Ethyl(4aR,10aS)-5,6-bis(acetyloxy)-1,1-dimethyl-7-(propan-2-yl)-1,3,4,9,10,10a-hexahydrophenanthrene-4a(2H)-carboxylate], for which the IC50 in assay [1] (HCT-116, 72 h) came to 25 ± 2 µM.

As to `CCCCOC(=O)[C@]12CCCC(C)(C)[C@@H]1CCc1cc(C(C)C)c(OC(C)=O)c(OC(C)=O)c12` [Compound 5, Butyl(4aR,10aS)-5,6-bis(acetyloxy)-1,1-dimethyl-7-(propan-2-yl)-1,3,4,9,10,10a-hexahydrophenanthrene-4a(2H)-carboxylate], the IC50 in assay [1] (setting [12]) amounted to 26 ± 1 µM. Turning to `COC(=O)[C@]12CCCC(C)(C)[C@@H]1CC(=O)c1cc(C(C)C)c(OC(C)=O)c(OC(C)=O)c12` [Compound 6, Methyl(4aR,10aS)-5,6-bis(acetyloxy)-1,1-dimethyl-9-oxo-7-(propan-2-yl)-1,3,4,9,10,10a-hexahydrophenanthrene-4a(2H)-carboxylate], in assay [1] (setting [12]), the IC50 came to 36 ± 1 µM. For the molecule `CCOC(=O)[C@]12CCCC(C)(C)[C@@H]1CC(=O)c1cc(C(C)C)c(OC(C)=O)c(OC(C)=O)c12` [Compound 7, Ethyl(4aR,10aS)-5,6-bis(acetyloxy)-1,1-dimethyl-9-oxo-7-(propan-2-yl)-1,3,4,9,10,10a-hexahydrophenanthrene-4a(2H)-carboxylate], the IC50 in assay [1] (setting [12]) was determined as 31 ± 3 µM.

Take `CCCCOC(=O)[C@]12CCCC(C)(C)[C@@H]1CC(=O)c1cc(C(C)C)c(OC(C)=O)c(OC(C)=O)c12` [Compound 8, Butyl(4aR,10aS)-5,6-bis(acetyloxy)-1,1-dimethyl-9-oxo-7-(propan-2-yl)-1,3,4,9,10,10a-hexahydrophenanthrene-4a(2H)-carboxylate]: the “fold more active than cisplatin” value in [1] (HCT116 cells, ratio of IC50 values) was 1.4 fold; in assay [10] (setting [13]), 2.2 fold. The IC50 in [1] (setting [12]) amounted to 15.1 ± 0.7 µM; in [10] (Homo sapiens, SW480, MTT assay, 72 h incubation, mean ± SD, read-out: IC50 SW480), 6.8 ± 0.6 µM; in [2], 11 ± 1 µM; in [3] it was 12.7 ± 0.3 µM; in [4] it was 12 ± 1 µM; in assay [11], 8.1 ± 0.5 µM. Further, the “fold more potent than CA 1” value in assay [10] (setting [13]) worked out at 3.2 fold. Regarding `COC(=O)[C@]12CCCC(C)(C)[C@@H]1CC(O)c1cc(C(C)C)c(OC(C)=O)c(OC(C)=O)c12` (stereo partly drawn) [Compound 9, Methyl(4aR,10aS)-5,6-bis(acetyloxy)-9-hydroxy-1,1-dimethyl-7-(propan-2-yl)-1,3,4,9,10,10a-hexahydrophenanthrene-4a(2H)-carboxylate], the IC50 in assay [1] (setting [12]) came out at 37 ± 3 µM. In the case of `CCOC(=O)[C@]12CCCC(C)(C)[C@@H]1CC(O)c1cc(C(C)C)c(OC(C)=O)c(OC(C)=O)c12` (stereo partly drawn) [Compound 10, Ethyl(4aR,10aS)-5,6-bis(acetyloxy)-9-hydroxy-1,1-dimethyl-7-(propan-2-yl)-1,3,4,9,10,10a-hexahydrophenanthrene-4a(2H)-carboxylate], the IC50 in assay [1] (setting [12]) came out at 34 ± 3 µM. In the case of `CCCCOC(=O)[C@]12CCCC(C)(C)[C@@H]1CC(O)c1cc(C(C)C)c(OC(C)=O)c(OC(C)=O)c12` (stereo partly drawn) [Compound 11, Butyl(4aR,10aS)-5,6-bis(acetyloxy)-9-hydroxy-1,1-dimethyl-7-(propan-2-yl)-1,3,4,9,10,10a-hexahydrophenanthrene-4a(2H)-carboxylate], the IC50 in [1] (setting [12]) is 27 ± 4 µM. Consider `CC(=O)Oc1c(C(C)C)cc2c(c1OC(C)=O)[C@@]1(N=C=O)CCCC(C)(C)[C@@H]1CC2` [Compound 14, (4bR,8aS)-4b-Isocyanato-8,8-dimethyl-2-(propan-2-yl)-4b,5,6,7,8,8a,9,10-octahydrophenanthrene-3,4-diyl diacetate], for which the IC50 in assay [1] (HCT-116, 72 h) came out at 28 ± 3 µM. As to `COC(=O)N[C@]12CCCC(C)(C)[C@@H]1CCc1cc(C(C)C)c(OC(C)=O)c(OC(C)=O)c12` [Compound 15, (4bR,8aS)-4b-[(Methoxycarbonyl)amino]-8,8-dimethyl-2-(propan-2-yl)-4b,5,6,7,8,8a,9,10-octahydrophenanthrene-3,4-diyl diacetate], the IC50 in assay [1] (HCT-116, 72 h) was found to be 55 ± 5 µM. Turning to `CCOC(=O)N[C@]12CCCC(C)(C)[C@@H]1CCc1cc(C(C)C)c(OC(C)=O)c(OC(C)=O)c12` [Compound 16, (4bR,8aS)-4b-[(Ethoxycarbonyl)amino]-8,8-dimethyl-2-(propan-2-yl)-4b,5,6,7,8,8a,9,10-octahydrophenanthrene-3,4-diyl diacetate], in assay [1] (HCT-116, 72 h), the IC50 is 37 ± 2 µM. On to `COC(=O)N[C@]12CCCC(C)(C)[C@@H]1CC(=O)c1cc(C(C)C)c(OC(C)=O)c(OC(C)=O)c12` [Compound 18, (4bR,8aS)-4b-[(Methoxycarbonyl)amino]-8,8-dimethyl-10-oxo-2-(propan-2-yl)-4b,5,6,7,8,8a,9,10-octahydrophenanthrene-3,4-diyl diacetate], for which the IC50 in assay [1] (HCT-116, 72 h) is over 50 µM. Turning to `CCOC(=O)N[C@]12CCCC(C)(C)[C@@H]1CC(=O)c1cc(C(C)C)c(OC(C)=O)c(OC(C)=O)c12` [Compound 19, (4bR,8aS)-4b-[(Ethoxycarbonyl)amino]-8,8-dimethyl-10-oxo-2-(propan-2-yl)-4b,5,6,7,8,8a,9,10-octahydrophenanthrene-3,4-diyl diacetate], the IC50 in [1] (HCT-116, 72 h) came out at 48.2 ± 0.1 µM.
